This note sets out measurements from ChEMBL document CHEMBL1155845, “Novel terphenyls and 3,5-diaryl isoxazole derivatives endowed with growth supporting and antiapoptotic properties” (J Med Chem, 2008).

Activity calls are given as the source filed them. No cut-off for these calls is given here.

The test system of assay [1] is HL-60. The assay can be described thus: Enhancement of human HL60 cells growth at less than 10 uM after 48 hrs by trypan blue assay. In kind it is functional, cell-based.
In assay [2] the test system is HL-60. The assay can be described thus: Antiapoptotic activity in human HL60 cells at 2.5 to 5 uM after 72 hrs in serum free medium relative to control. The class given is functional.
Assay [3] relates to HL-60. As to the kind of experiment: Antiproliferative activity against human HL60 cells after 72 hrs in serum free medium. The class given is functional.
Assay [4] relates to HL-60. The assay can be described thus: Enhancement of human HL60 cells growth at 5 uM after 72 hrs in serum free medium. The class given is functional, cell-based.
For assay [5], the system named is HL-60. The assay can be described thus: Inhibition of daunorubicin-induced apoptosis in human HL60 cells at 2.5 uM after 48 hrs. In kind it is functional, cell-based.
In assay [6] the test system is HL-60. The assay can be described thus: Growth inhibition of human HL60 cells at greater than 10 uM after 48 hrs by trypan blue assay. The class given is functional, cell-based.
The subject of assay [7] is HL-60. The assay can be described thus: Enhancement of human HL60 cells growth assessed as promotion of G1 to S transition at 2.5 uM after 24 hrs by flow cytometry. The class given is functional, cell-based. On the technique in general: A flow cytometer gives signals particle by particle.
The subject of assay [8] is HL-60. The assay can be described thus: Antiapoptotic activity in human HL60 cells after 72 hrs in serum free medium relative to control. In kind it is functional.
The test system of assay [9] is HL-60. As to the kind of experiment: Growth inhibition of human HL60 cells at 5 after 72 hrs in serum free medium. In kind it is functional, cell-based.
In assay [10] the test system is HL-60. The assay can be described thus: Growth inhibition of human HL60 cells at 2.5 uM after 72 hrs in serum free medium. The class given is functional, cell-based.
Assay [11] has as its system HL-60. As to the kind of experiment: Growth inhibition of human HL60 cells after 48 hrs by trypan blue assay. The class given is functional, cell-based. Particulars: HL-60, 48 h.
The subject of assay [12] is HL-60. As to the kind of experiment: Enhancement of human HL60 cells growth at 2.5 uM after 72 hrs in serum free medium. The class given is functional, cell-based.
In assay [13] the test system is HL-60. The assay can be described thus: Enhancement of human HL60 cells growth at 1 uM after 72 hrs in serum free medium. In kind it is functional, cell-based.

For `O=[N+]([O-])c1ccc(-c2cc(-c3ccc(O)c(C45CC6CC(CC(C6)C4)C5)c3)no2)cc1`, the result with HL-60 [1], in the assay on HL-60 [4], in the assay with HL-60 [5], in the assay with HL-60 [6] and in the assay on HL-60 [7] was Active. In the assay with HL-60 [2], this molecule registered an Activity of 10%. In addition, the “growth inhibition (GI)” value with HL-60 [3] was determined as 70%.

For `COc1cc(-c2cccc(-c3ccc(C(=O)O)cc3)c2)cc(OC)c1OC`, the Activity with HL-60 [8] is 17%.

Turning to `O=C(O)c1ccc(C2=NOC(c3ccc(O)c(C45CC6CC(CC(C6)C4)C5)c3)C2)cc1` (stereo not drawn), the result in the assay on HL-60 [9], with HL-60 [1], in the assay with HL-60 [10] and with HL-60 [6] was Active. In addition, the “growth inhibition (GI)” value in the assay with HL-60 [3] was 70%.

The term IC50 denotes the concentration at which inhibition is half-maximal. Read a high IC50 as weaker potency. With `O=C(O)c1ccc(-c2cc(-c3ccc(O)c(C45CC6CC(CC(C6)C4)C5)c3)on2)cc1`, the IC50 in the assay with HL-60 [11] is 3 µM.

For `O=C(O)c1ccc(-c2ccc(-c3ccc(O)c(C45CC6CC(CC(C6)C4)C5)c3)cc2)cc1`, in the assay on HL-60 [6], the outcome was Active.

In the case of `O=[N+]([O-])c1ccc(-c2cc(-c3ccc(O)c(C45CC6CC(CC(C6)C4)C5)c3)on2)cc1`, the outcome in the assay with HL-60 [1], in the assay with HL-60 [12], in the assay with HL-60 [6] and in the assay with HL-60 [13] was Active. Also, in the assay with HL-60 [3], the “growth inhibition (GI)” value came to 70%.

Take `COc1cc(-c2ccc(-c3ccc(C(=O)O)cc3)cc2)cc(OC)c1OC`: in the assay with HL-60 [8], the Activity was found to be 18%.

In the assay with HL-60 [11], `O=C(O)c1ccc(-c2ccccc2-c2ccc(O)c(C34CC5CC(CC(C5)C3)C4)c2)cc1` had an IC50 of 8 µM.

On to `O=C(O)c1ccc(-c2cccc(-c3ccc(O)c(C45CC6CC(CC(C6)C4)C5)c3)c2)cc1`, for which, in the assay with HL-60 [6], the result was Active.
